In PMC3986399, “Discovery of Novel Allosteric Effectors Based on the Predicted Allosteric Sites for Escherichia coli D-3-Phosphoglycerate Dehydrogenase” (PLoS ONE, 2014):
Entries after “also recorded” stand apart in the source; their conditions may differ. Like-named read-outs stand apart in the source and are kept apart here.

Key:
[1] = target: T1, PGDH (WT) (Escherichia coli, UniProt P0A9T0); experiment: SPR direct binding to immobilized PGDH
T1 construct: The PGDH coding region was ligated into the pET21a(+) vector; made in house; host or cells: E. coli BL21 (DE3)
Protocol: (§1) PGDH and its mutants were immobilized on a CM5 sensor chip by using standard amine-coupling at 25°C with running buffer HBS-P (20 mM […], 0.05% surfactant P-20, pH 7.4), respectively. […] A reference flow cell was activated and blocked in the absence of PGDH. […] Regeneration was achieved by extended washing with the running buffer after each sample injection. […] In the binding site verification SPR experiments, the sensor chip surface was immobilized with WT PGDH and its mutants to a RU of 4000, respectively. The analytes, compounds 1 and 2, were injected over the chip at a fixed concentration of 50 and 25 µM, respectively.

[2] = target: T2, E. coli PGDH (wild type) (Escherichia coli, UniProt P0A9T0); experiment: PGDH enzyme assay (NADH fluorescence, α-ketoglutarate substrate), wild type; assay type: biochemical; settings: for inhibition at 50 µM: compound 50 µM; for maximum enzyme activity (residual activity, activation): low compound concentration, >100% = activation
T2 construct: The PGDH coding region was ligated into the pET21a(+) vector; made in house; host or cells: E. coli BL21 (DE3)
Protocol: (§2) To evaluate the effects of compounds on PGDH activity, compounds were first examined to have no fluorescence absorption at 456 nm, and then pre-incubated with enzyme samples in the assay buffer (20 mM tris-(hydroxymethyl) aminomethane hydrochloride (Tris-HCl), pH 7.5, 1 mM DTT, 1 mM EDTA, and 0.25 mM NADH) for 6 min at 25°C. […] Fluorescence signals were recorded for 3 min with a kinetics mode program. The cofactor concentration in the assay buffer was 0.25 mM and the substrate concentration was 5 mM [28]. IC50 or AC50 values were obtained by fitting the data to a three-parameter Hill model of the graph of log dose against percentage inhibition or activation from at least three sets of experiments. Percentages of inhibition or activation were calculated according to the following equation: [drawing 1] in which Vo and Vi represent the maximum reaction rate of the enzyme incubated without or with compounds and Vn represents the maximum degradation rate of NADH.

[3] = target: T3, PGDH (Escherichia coli, UniProt P0A9T0); experiment: Compound-substrate competition experiments; assay type: biochemical; settings: for competition with the substrate: constant compound concentration, increasing α-ketoglutarate; for inhibition at 50 µM: substrate increased from 156 µM to 10 mM, compound 50 µM, read-out: percentage of inhibition with increasing substrate
T3 construct: The PGDH coding region was ligated into the pET21a(+) vector; made in house; host or cells: E. coli BL21 (DE3)
Protocol: To investigate competition effects between the compounds and the substrate α-ketoglutarate, we performed compound-substrate competition experiments as follows:
Before α-ketoglutarate was added to start the reaction, the enzyme sample was pre-incubated with the cofactor and the compound for 6 min at 25°C. […] The cofactor NADH concentration was kept constant at 0.25 mM. […]
Serine-compound competition experiment […]
Competition experiments for analogs and the substrate
1-3 were kept at 92, 100, and 120 μM, while gradually increasing the substrate
concentration from 78 μM to 625 μM. […]

[4] = target: T3, PGDH; experiment: Serine-compound competition experiment; assay type: biochemical; settings: compound 40 µM; serine 1.6 to 200 µM
Protocol: Serine-compound competition experiment
Serine-compound competition experiments were did like that for compound-substrate experiments, before the reaction was started, the enzyme was pre-incubated with the mixture of serine and compound for 6 minutes. During this process, compound was kept at a constant inhibitory concentration, and the serine concentrations were changed from 1.6 to 200
μM. The concentrations of compounds 1 and 2 were selected as 40 μM. […]

[5] = target: T4, PGDH mutant E129A (Escherichia coli, UniProt P0A9T0, E129A); experiment: PGDH enzyme assay, mutant E129A; assay type: biochemical
T4 construct: The PGDH coding region was ligated into the pET21a(+) vector; made in house; host or cells: E. coli BL21 (DE3)
Protocol: as §2
(§3) All mutagenesis experiments were carried out according to the instructions of the QuikChange site-directed mutagenesis (Stratagene). The plasmid pET-21a(+)-containing wild-type (WT) PGDH was mutated to obtain the mutants E129A, S146A, F147A, K256A, K152AK230A, and E129AK256A. The DNA sequences of all mutants were verified by DNA sequencing. […]

[6] = target: T5, PGDH mutant Y410A (Escherichia coli, UniProt P0A9T0, Y410A); experiment: SPR binding site verification, site II mutant Y410A; settings: compound 1 at 50 µM, compound 2 at 25 µM
T5 construct: The PGDH coding region was ligated into the pET21a(+) vector; made in house
Protocol: as §1
(§4) We also tested whether compounds 1 and 2 might interact with the other allosteric site (site II) we discovered before. The key binding residue in site II, Y410 was mutated to A. The binding of these two compounds with the wild type enzyme, Y410A, and two site I mutants (F147A, E129AK256A) were tested using SPR direct binding assay. The immobilization levels for WT, Y410A, F147A and E129AK256A were kept almost the same (3506, 3792, 3756 and 3600 RU, respectively) and the concentrations of compounds 1 and 2 were kept at 50 µM and 25 µM. […] This verified that both compounds 1 and 2 bind specifically to the site I as designed.

[7] = target: T6, PGDH mutant K256A (Escherichia coli, UniProt P0A9T0, K256A); experiment: PGDH enzyme assay, mutant K256A; assay type: biochemical
T6 construct: The PGDH coding region was ligated into the pET21a(+) vector; made in house; host or cells: E. coli BL21 (DE3)
Protocol: as §2, §3

[8] = target: T3, PGDH; experiment: Enzyme kinetic analysis (Michaelis-Menten); assay type: biochemical; settings: compound 0 to 120 µM
Protocol: As in the competition experiments, enzyme reaction velocity vs. substrate relationships were measured at various compound concentrations. The compound concentrations used were 120, 80, 40, 24, 8, 4.8, 1.6, and 0.32 µM.
To evaluate the effects of the compounds on enzyme kinetics, Michaelis-Menten plots of PGDH incubated with different concentrations of compounds were measured. The apparent kinetic parameters kcat and Km were estimated by non-linear curve-fitting using Graphpad Prism 5.0 software, and their values are shown in Figure 6. […] The kcat of the pure enzyme was about 2.6 s^−1, which was in between the kcat values of the enzyme at the molecular concentrations of 8 µM and 24 µM.

[9] = target: T7, PGDH mutant E129AK256A (Escherichia coli, UniProt P0A9T0, E129A/K256A); experiment: SPR binding site verification, site I mutant E129AK256A; settings: compound 1 at 50 µM, compound 2 at 25 µM
T7 construct: The PGDH coding region was ligated into the pET21a(+) vector; made in house; host or cells: E. coli BL21 (DE3)
Protocol: as §1, §4

[10] = target: T8, PGDH mutant F147A (Escherichia coli, UniProt P0A9T0, F147A); experiment: PGDH enzyme assay, mutant F147A; assay type: biochemical
T8 construct: The PGDH coding region was ligated into the pET21a(+) vector; made in house; host or cells: E. coli BL21 (DE3)
Protocol: as §2, §3

[11] = target: T7, PGDH mutant E129AK256A; experiment: PGDH enzyme assay, mutant E129AK256A; assay type: biochemical
Protocol: as §2, §3

[12] = target: T8, PGDH mutant F147A; experiment: SPR binding site verification, site I mutant F147A; settings: compound 1 at 50 µM, compound 2 at 25 µM
Protocol: as §1, §4

[13] = tested on: PGDH from pea; settings: PGDH from peas, cited from earlier work
[14] = target: T9, PGDH mutant S146A (Escherichia coli, UniProt P0A9T0, S146A); experiment: PGDH enzyme assay, mutant S146A; assay type: biochemical
T9 construct: The PGDH coding region was ligated into the pET21a(+) vector; made in house; host or cells: E. coli BL21 (DE3)
Protocol: as §2, §3

[15] = target: T10, PGDH mutant K152AK230A (Escherichia coli, UniProt P0A9T0, K152A/K230A); experiment: PGDH enzyme assay, mutant K152AK230A; assay type: biochemical
T10 construct: The PGDH coding region was ligated into the pET21a(+) vector; made in house; host or cells: E. coli BL21 (DE3)
Protocol: as §2, §3

[16] = wild type PGDH, substrate 5 mM, NADH 0.25 mM, read-out: IC50

Question: With `Cc1ccccc1C(=O)Nc1ccccc1C(=O)N/N=C/c1ccccc1OCc1ccccc1[N+](=O)[O-]` [Compound 3] as the compound, how does the SPR binding ability ([1]; no reliable KD obtained) read?
Answer: Its SPR binding ability is “weak binding ability”.

Question: And the inhibition at 130 µM ([2]; compound 130 µM, substrate 5 mM)?
Answer: Its inhibition at 130 µM is about 50%.

Question: What about the maximal inhibition rate ([2]; partial dose-inhibition curve due to solubility restriction) of the same compound?
Answer: Its maximal inhibition rate is 61.9%.

Question: What about the IC50 [2, 16] of the same compound?
Answer: The IC50 was 131 ± 12 µM.

Question: And the “competition with the substrate” value [3]?
Answer: The value was “percentage inhibition did not change”.

Question: What does the source list for `Cc1ccc(N2NC(=O)/C(=C/c3ccc(-c4ccc(S(=O)(=O)Nc5nccs5)cc4)o3)C2=O)cc1C` [Compound 2]?
Answer: influence on the inhibitory ability of serine [4]: no significant effect; also recorded: not significantly influenced; IC50 [5]: 99 ± 13 µM; Kd ([1]; SPR, 1:1 Langmuir binding model, PGDH 800 RU, read-out: KD): 19 ± 1.9 µM; compound binding ability to Y410A versus WT [6]: retained the same extent of compound binding ability as WT; inhibition at 50 µM ([2]; substrate 5 mM): ~50%; AC50 ([2]; fit of activation dose response curve, substrate 5 mM): 0.0347 µM; maximum enzyme activity (residual activity, activation) ([2]; substrate 5 mM): 163%; concentration above which the compound is an inhibitor ([2]; substrate 5 mM): above 1.6 µM; concentration at which activation starts ([2]; substrate 5 mM): about 2 nM; concentration of highest activation ([2]; substrate 5 mM): about 64 nM; IC50 [2, 16]: 58 ± 9 µM; IC50 [7]: > 200 µM; effect on Km / substrate affinity of the enzyme [8]: enhanced the substrate affinity for the enzyme; compound binding ability to E129AK256A versus WT [9]: a large decrease in compound binding ability; IC50 [10]: 158 ± 22 µM; IC50 [11]: > 200 µM; compound binding ability to F147A versus WT [12]: a large decrease in compound binding ability; competition with the substrate [3]: do not competitively bind to the same site; inhibition at 50 µM [3]: 20 to 50%

Question: With `CSCC[C@H](N)C(=O)O` [L-methionine] as the compound, how does the “increase in enzyme activity” value ([13]; at maximal activation) read?
Answer: Its value is “four- to five”.

Question: What about the “concentration of maximal activation” value [13] of the same compound?
Answer: The value was 10 mM.

Question: Which results are given for `O=C1NC(=S)NC(=O)C1=Cc1ccc(OC(=O)c2ccc3nc(-c4ccccc4)c(-c4ccccc4)nc3c2)cc1` [Compound 1]?
Answer: influence on the inhibitory ability of serine [4]: no significant effect; also recorded: not significantly influenced; Kd [1]: 42.6 ± 2.1 µM; compound binding ability to Y410A versus WT [6]: retained the same extent of compound binding ability as WT; IC50 [14]: 175 ± 88 µM; IC50 [2]: 34.8 ± 1.3 µM; inhibition at 50 µM ([2]; substrate 5 mM): ~50%; maximum enzyme activity (residual activity, activation) ([2]; substrate 5 mM): about 140%; concentration above which the compound is an inhibitor ([2]; substrate 5 mM): > 16 µM; effect on Km / substrate affinity of the enzyme [8]: enhanced the substrate affinity for the enzyme; compound binding ability to E129AK256A versus WT [9]: a large decrease in compound binding ability; IC50 [15]: > 200 µM; IC50 [10]: 181 ± 26 µM; compound binding ability to F147A versus WT [12]: a large decrease in compound binding ability; competition with the substrate [3]: do not competitively bind to the same site; inhibition at 50 µM [3]: 20 to 50%
